From US9242993B2, “Morpholino substituted bicyclic pyrimidine urea or carbamate derivatives as mTOR inhibitors” (CELLZOME LIMITED, priority 2011, dated 2016)

Columns and labels:
[1] = target: DNA-dependent protein kinase (DNA-PK) (Homo sapiens, UniProt P78527); test: biochemical
[2] = target: mTOR (Homo sapiens, UniProt P42345); test: biochemical
[3] = test system: S6RP serine-240/244 phosphorylation; test: In vitro phospho-S6 cellular assay; assay type: cell-based; conditions: Homo sapiens; HEK293T/17 cells, 2 hours; read-out: pS6 inhibition value (IC50), activity level
Source text: Activation of mTOR signaling results in phosphorylation of several downstream targets. In cells, mTOR exists in two different protein complexes. The mTOR Complex-1 (mTORC1) phosphorylates and activates S6 Kinase 1 (S6K1) and S6 Kinase 2 (S6K2) (also known as p70S6K) which then phosphorylate S6 Ribosomal Protein (S6RP) (also known as RPS6)3. S6RP is phosphorylated on serine 235, serine 236, serine 240 and serine 244 by both pS6K1 and pS6K2. The mTOR Complex-2 (mTORC2) phosphorylates AKT on serine 473 which activates the AKT signaling pathway.
The assay measures a test compound's inhibition of S6RP serine-240/244 phosphorylation and inhibition of Akt serine-473 phosphorylation in human embryonic kidney derived HEK293T/17 cells (ATCC CRL-11268).
The HEK293T/17 cell line is maintained in DMEM media (Invitrogen catalogue number 41965-039) supplemented with 10% FCS at 37° C. in a 5% CO2 humidified incubator.
Cells are seeded in 96-well plates at 40,000 cells/well (pS6RP S240/244 assay) or 80,000 cells/well (pAkt S473 assay) in 90 μl growth media (DMEM, 2% FCS). Plates are incubated for 1 hour in a humidified incubator to allow the cells to adhere. Cells are treated with 8 concentrations of test compounds or DMSO alone for controls (final DMSO concentration 0.1%) and incubated at 37° C. for 2 hours. Then 20 μl of 5× concentrated lysis buffer (750 mM NaCl, 100 mM Tris pH7.4, 5 mM ADTA, 5 mM EGTA, 5% Triton X-100) is added, plates are sealed and incubated for 15 minutes at 4° C. with gentle shaking. After cell lysis, 25 μl cell lysate is transferred to a MesoScale plate coated with an antibody to pS6RP Ser240/244 (MesoScale Discovery K150DGD-3) or an antibody to pAkt Ser 473 (MesoScale Discovery K151DGD-3). Plates have been blocked before by incubation with 150 μl MesoScale Discovery Blocking Solution-A for 1 hour at room temperature followed by washing with 150 μl 1× Tris wash buffer per well. After the transfer of the cell lysate to the MSD plate, the pS6RP (or pAkt) protein is captured on the coated antibody by incubation at room temperature for 1 hour with gentle shaking. After the capture step the plate is washed three times with 150 μl of 1× Tris wash buffer per well. Then 25 μl detection antibody conjugated with a Sulfo-Tag is added and incubated for 1 hour at room temperature with gentle shaking. Subsequently the antibody solution is removed and the plate is washed 3 times with 150 μl 1× Tris wash buffer per well and 150 μl Read buffer is added. The plates are analysed on a MSD 2400 Plate Reader (MesoScale Discovery). Data analysis is performed using nonlinear regression for a sigmoidal dose-response with a variable slope.

Sequence of DNA-dependent protein kinase (DNA-PK) (P78527 whole entry): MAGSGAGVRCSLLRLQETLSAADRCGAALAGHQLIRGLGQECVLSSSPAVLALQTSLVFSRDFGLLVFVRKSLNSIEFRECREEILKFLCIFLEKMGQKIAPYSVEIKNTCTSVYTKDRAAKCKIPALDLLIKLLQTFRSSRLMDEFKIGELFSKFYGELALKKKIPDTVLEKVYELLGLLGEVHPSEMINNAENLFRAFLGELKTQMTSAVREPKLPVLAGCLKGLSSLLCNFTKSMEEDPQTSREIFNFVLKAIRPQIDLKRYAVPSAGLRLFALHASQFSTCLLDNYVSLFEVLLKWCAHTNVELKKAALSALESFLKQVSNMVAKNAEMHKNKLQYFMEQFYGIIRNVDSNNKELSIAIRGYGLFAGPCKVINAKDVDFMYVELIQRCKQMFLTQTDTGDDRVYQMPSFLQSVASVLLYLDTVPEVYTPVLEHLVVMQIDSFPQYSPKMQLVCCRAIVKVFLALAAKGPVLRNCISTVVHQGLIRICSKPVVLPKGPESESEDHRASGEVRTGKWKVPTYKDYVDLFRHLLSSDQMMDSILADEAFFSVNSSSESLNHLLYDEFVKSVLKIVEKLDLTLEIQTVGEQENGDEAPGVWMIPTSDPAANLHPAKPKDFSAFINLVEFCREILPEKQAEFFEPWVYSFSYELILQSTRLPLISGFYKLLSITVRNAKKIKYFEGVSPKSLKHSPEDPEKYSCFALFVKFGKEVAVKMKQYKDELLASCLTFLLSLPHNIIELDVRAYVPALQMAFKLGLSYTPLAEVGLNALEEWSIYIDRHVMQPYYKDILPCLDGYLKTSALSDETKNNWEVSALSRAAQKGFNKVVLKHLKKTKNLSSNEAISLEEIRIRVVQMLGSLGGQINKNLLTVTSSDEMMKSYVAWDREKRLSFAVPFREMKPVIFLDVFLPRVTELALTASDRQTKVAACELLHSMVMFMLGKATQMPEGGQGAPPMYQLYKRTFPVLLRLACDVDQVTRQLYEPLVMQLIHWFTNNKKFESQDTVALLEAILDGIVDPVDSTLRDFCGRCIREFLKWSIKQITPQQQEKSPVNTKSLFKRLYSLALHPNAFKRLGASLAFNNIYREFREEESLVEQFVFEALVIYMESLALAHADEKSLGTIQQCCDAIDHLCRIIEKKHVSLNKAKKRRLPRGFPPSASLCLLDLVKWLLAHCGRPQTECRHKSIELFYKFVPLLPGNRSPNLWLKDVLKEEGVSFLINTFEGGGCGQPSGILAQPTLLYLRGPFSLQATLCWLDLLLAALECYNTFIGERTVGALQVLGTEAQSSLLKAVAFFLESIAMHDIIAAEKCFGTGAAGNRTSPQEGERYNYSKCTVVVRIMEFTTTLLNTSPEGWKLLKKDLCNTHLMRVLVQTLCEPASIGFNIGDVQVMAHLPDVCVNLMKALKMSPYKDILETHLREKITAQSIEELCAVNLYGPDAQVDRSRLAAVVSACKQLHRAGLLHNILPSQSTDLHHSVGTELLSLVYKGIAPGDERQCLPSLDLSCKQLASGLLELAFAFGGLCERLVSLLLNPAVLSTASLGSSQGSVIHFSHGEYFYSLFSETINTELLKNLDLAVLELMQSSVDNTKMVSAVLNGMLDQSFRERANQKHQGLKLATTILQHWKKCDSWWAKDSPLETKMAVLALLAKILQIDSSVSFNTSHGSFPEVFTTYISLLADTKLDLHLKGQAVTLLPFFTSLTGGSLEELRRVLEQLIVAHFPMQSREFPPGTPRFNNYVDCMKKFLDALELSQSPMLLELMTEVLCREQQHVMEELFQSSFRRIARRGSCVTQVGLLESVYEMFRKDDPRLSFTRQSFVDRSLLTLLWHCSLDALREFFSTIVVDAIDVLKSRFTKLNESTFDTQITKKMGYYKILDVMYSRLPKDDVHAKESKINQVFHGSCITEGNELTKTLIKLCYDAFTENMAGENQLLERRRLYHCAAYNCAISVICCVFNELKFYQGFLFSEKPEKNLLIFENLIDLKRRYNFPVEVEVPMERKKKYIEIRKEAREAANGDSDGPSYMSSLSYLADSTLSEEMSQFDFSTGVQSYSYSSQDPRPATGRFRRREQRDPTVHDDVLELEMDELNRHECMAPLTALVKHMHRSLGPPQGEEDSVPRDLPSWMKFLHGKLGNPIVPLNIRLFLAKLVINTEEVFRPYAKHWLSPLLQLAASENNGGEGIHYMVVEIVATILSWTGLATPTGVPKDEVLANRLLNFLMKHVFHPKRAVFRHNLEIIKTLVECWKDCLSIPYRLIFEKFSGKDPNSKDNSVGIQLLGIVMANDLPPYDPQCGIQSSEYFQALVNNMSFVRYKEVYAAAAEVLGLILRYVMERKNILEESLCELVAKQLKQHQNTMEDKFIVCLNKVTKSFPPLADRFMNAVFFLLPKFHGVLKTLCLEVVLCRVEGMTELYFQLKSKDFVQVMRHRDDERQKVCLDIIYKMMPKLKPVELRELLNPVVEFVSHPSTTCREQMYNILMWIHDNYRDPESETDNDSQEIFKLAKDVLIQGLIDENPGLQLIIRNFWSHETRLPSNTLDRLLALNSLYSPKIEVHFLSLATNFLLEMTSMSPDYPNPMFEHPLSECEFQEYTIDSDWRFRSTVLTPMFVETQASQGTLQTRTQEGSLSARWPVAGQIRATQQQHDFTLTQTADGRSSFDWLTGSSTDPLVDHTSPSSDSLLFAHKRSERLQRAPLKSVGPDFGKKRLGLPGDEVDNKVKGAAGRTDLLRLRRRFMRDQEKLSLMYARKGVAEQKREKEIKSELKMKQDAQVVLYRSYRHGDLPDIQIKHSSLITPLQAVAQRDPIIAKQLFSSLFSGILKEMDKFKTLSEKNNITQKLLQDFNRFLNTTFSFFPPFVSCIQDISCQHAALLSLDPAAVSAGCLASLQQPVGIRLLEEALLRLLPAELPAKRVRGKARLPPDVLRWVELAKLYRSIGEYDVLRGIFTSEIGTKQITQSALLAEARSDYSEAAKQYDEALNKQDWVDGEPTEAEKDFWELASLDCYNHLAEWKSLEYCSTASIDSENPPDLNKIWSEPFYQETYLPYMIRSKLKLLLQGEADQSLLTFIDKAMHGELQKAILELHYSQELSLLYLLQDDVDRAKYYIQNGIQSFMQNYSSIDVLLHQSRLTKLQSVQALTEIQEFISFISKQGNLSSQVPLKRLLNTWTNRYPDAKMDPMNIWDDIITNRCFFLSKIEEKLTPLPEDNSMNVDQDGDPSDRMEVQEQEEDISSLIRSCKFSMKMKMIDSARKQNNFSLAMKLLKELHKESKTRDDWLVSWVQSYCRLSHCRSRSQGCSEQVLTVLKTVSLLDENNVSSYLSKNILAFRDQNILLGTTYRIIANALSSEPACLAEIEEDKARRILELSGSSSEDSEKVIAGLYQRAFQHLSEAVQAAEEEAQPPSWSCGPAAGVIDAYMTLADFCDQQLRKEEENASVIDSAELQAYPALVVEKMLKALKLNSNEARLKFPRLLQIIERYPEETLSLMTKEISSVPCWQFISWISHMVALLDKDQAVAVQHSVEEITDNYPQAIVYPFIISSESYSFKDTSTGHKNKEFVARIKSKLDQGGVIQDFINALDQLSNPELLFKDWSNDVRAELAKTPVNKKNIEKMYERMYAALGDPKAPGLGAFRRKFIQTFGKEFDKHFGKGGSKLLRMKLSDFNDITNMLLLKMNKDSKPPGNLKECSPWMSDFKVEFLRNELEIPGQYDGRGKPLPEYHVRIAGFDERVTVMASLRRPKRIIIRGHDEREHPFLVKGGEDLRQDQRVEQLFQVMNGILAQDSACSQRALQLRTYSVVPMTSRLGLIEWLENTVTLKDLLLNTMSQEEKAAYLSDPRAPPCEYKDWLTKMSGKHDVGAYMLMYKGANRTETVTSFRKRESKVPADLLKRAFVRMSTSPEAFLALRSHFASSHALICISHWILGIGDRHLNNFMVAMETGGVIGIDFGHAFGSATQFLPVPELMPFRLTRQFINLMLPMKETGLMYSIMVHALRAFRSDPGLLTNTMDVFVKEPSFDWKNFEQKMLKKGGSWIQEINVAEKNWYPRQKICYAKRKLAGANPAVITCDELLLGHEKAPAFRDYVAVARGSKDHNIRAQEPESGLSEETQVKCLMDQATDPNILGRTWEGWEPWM

IC50 [1]	IC50 [2]	IC50 [3]	SMILES
> 10000 nM	100 to 1000 nM	100 to 1000 nM	C[C@H]1COCCN1c1nc(-c2ccc(NC(=O)NCCCF)cc2)nc2c1CS(=O)(=O)C2 [Example 28, (S)-1-(3-fluoropropyl)-3-(4-(4-(3-methylmorpholino)-6,6-dioxido-5,7-dihydrothieno[3,4-d]pyrimidin-2-yl)phenyl)urea]
> 10000 nM	< 100 nM	< 100 nM	C[C@H]1COCCN1c1nc(-c2ccc(NC(=O)NC3CC3)cc2)nc2c1SCCC2 [Example 8, (S)-1-cyclopropyl-3-(4-(4-(3-methylmorpholino)-7,8-dihydro-6H-thiopyrano[3,2-d]pyrimidin-2-yl)phenyl)urea]
> 10000 nM	100 to 1000 nM	< 100 nM	CNC(=O)Nc1ccc(-c2nc(N3CCOC[C@@H]3C)c3c(n2)C(C)(C)S(=O)(=O)C3)cc1F [Example 65, (S)-1-(4-(7,7-dimethyl-4-(3-methylmorpholino)-6,6-dioxido-5,7-dihydrothieno[3,4-d]pyrimidin-2-yl)-2-fluorophenyl)-3-methylurea]
> 10000 nM	< 100 nM	< 100 nM	C[C@H]1COCCN1c1nc(-c2ccc(NC(=O)Nc3ccncc3)cc2)nc2c1CS(=O)(=O)C2 [Example 35, (S)-1-(4-(4-(3-methylmorpholino)-6,6-dioxido-5,7-dihydrothieno[3,4-d]pyrimidin-2-yl)phenyl)-3-(pyridin-4-yl)urea]
> 10000 nM	100 to 1000 nM	100 to 1000 nM	O=C(NCCCF)Nc1ccc(-c2nc3c(c(N4CC5CCC(C4)O5)n2)CS(=O)(=O)C3)cc1 [Example 29, 1-(4-(4-(8-oxa-3-azabicyclo[3.2.1]octan-3-yl)-6,6-dioxido-5,7-dihydrothieno[3,4-d]pyrimidin-2-yl)phenyl)-3-(3-fluoropropyl)urea]
> 10000 nM	< 100 nM	1000 to 10000 nM	O=C(NCCO)Nc1ccc(-c2nc3c(c(N4CC5CCC(C4)O5)n2)CS(=O)(=O)C3)cc1 [Example 16, 1-(4-(4-(8-oxa-3-azabicyclo[3.2.1]octan-3-yl)-6,6-dioxido-5,7-dihydrothieno[3,4-d]pyrimidin-2-yl)phenyl)-3-(2-hydroxyethyl)urea]
> 10000 nM	100 to 1000 nM	< 100 nM	CC1c2c(nc(-c3ccc(NC(=O)NC4CC4)cc3)nc2N2CCOCC2)CS1(=O)=O (stereo not drawn) [Example 31, 1-cyclopropyl-3-(4-(5-methyl-4-morpholino-6,6-dioxido-5,7-dihydrothieno[3,4-d]pyrimidin-2-yl)phenyl)urea]
> 10000 nM	< 100 nM	< 100 nM	CCC1COCCN1c1nc(-c2ccc(NC(=O)NC3CC3)cc2)nc2c1C(C)S(=O)(=O)C2 (stereo not drawn) [Example 32, 1-cyclopropyl-3-(4-(4-(3-ethylmorpholino)-5-methyl-6,6-dioxido-5,7-dihydrothieno[3,4-d]pyrimidin-2-yl)phenyl)urea]
> 10000 nM	< 100 nM	100 to 1000 nM	CNC(=O)Nc1ccc(-c2nc3c(c(N4CCOC[C@@H]4C)n2)CS(=O)(=O)C3)cc1 [Example 12, (S)-1-methyl-3-(4-(4-(3-methylmorpholino)-6,6-dioxido-5,7-dihydrothieno[3,4-d]pyrimidin-2-yl)phenyl)urea]
> 10000 nM	< 100 nM	100 to 1000 nM	O=C(NCCF)Nc1ccc(-c2nc3c(c(N4CC5CCC(C4)O5)n2)CS(=O)(=O)C3)cc1 [Example 22, 1-(4-(4-(8-oxa-3-azabicyclo[3.2.1]octan-3-yl)-6,6-dioxido-5,7-dihydrothieno[3,4-d]pyrimidin-2-yl)phenyl)-3-(2-fluoroethyl)urea]
> 10000 nM	< 100 nM	< 100 nM	CCNC(=O)Nc1ccc(-c2nc3c(c(N4CC5CCC(C4)O5)n2)CS(=O)(=O)C3)cc1 [Example 15, 1-(4-(4-(8-oxa-3-azabicyclo[3.2.1]octan-3-yl)-6,6-dioxido-5,7-dihydrothieno[3,4-d]pyrimidin-2-yl)phenyl)-3-ethylurea]
